Data published in ChEMBL document CHEMBL2321822, “Synthesis and biological evaluation of 1-(6-methylpyridin-2-yl)-5-(quinoxalin-6-yl)-1,2,3-triazoles as transforming growth factor-β type 1 receptor kinase inhibitors” (Bioorg Med Chem Lett, 2013).
pIC50: −log10 of the molar value.

What was measured:
[1] = molecular target: T1, TGF-beta receptor type-1 (Homo sapiens) (UniProt P36897); experiment: Inhibition of human ALK5 at 10 uM in presence of 1 microM ATP relative to control
T1 sequence (whole entry): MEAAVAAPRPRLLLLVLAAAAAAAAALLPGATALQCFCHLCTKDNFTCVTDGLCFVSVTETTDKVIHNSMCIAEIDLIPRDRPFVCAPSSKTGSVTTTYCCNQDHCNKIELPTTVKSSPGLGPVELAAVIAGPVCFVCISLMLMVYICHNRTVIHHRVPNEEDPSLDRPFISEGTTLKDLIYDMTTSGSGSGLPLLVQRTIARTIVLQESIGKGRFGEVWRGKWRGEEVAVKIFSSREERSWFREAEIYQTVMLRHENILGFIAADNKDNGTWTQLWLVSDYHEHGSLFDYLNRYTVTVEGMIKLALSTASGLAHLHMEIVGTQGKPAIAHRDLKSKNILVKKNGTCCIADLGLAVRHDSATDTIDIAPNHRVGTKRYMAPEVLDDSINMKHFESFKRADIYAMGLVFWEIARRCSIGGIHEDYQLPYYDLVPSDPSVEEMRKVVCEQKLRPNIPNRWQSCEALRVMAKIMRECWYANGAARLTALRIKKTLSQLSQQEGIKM

[2] = molecular target: Mitogen-activated protein kinase 14 (Homo sapiens) (UniProt Q16539); experiment: Inhibition of human P38alpha/MAPK at 10 uM in presence of 1 microM ATP
[3] = molecular target: T2, TGF-beta receptor type-1 (Homo sapiens, UniProt P36897); experiment: Inhibition of human ALK5 in presence of 1 microM ATP
T2 sequence (P36897 whole entry): T1 sequence (whole entry)

Mitogen-activated protein kinase 14 (Homo sapiens), sequence (Q16539 whole entry): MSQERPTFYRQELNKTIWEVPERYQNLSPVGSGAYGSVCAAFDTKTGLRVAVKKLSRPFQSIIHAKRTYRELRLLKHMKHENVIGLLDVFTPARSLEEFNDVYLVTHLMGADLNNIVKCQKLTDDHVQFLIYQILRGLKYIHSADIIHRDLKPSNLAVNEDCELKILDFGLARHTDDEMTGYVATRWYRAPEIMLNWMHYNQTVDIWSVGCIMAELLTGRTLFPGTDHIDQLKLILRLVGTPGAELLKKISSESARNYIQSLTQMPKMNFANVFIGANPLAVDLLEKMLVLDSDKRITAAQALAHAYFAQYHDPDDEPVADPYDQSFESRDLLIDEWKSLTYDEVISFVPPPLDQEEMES

| SMILES | inhibition [1] [%] | inhibition [2] [%] | pIC50 [3] |
| --- | --- | --- | --- |
| COc1cc(OC)cc(-c2nnn(-c3cccc(C)n3)c2-c2ccc3nccnc3c2)c1 | 23.4 | -6.87 | – |
| Cc1cccc(-n2nnc(Cc3ccccc3)c2-c2ccc3nccnc3c2)n1 | 80.8 | -1.94 | 5.33 |
| Cc1cccc(-n2nnc(-c3ccccc3)c2-c2ccc3nccnc3c2)n1 | -4.94 | 31.2 | – |
| Cc1ccc(-c2nnn(-c3cccc(C)n3)c2-c2ccc3nccnc3c2)cc1 | 20.7 | -5.07 | – |
| Cc1cccc(-n2nnc(CCC(C)C)c2-c2ccc3nccnc3c2)n1 | 73.1 | -5.91 | 5.07 |
| Cc1cccc(-n2nnc(CCCCO)c2-c2ccc3nccnc3c2)n1 | 20.4 | – | 4.29 |
| CCCCc1nnn(-c2cccc(C)n2)c1-c1ccc2nccnc2c1 | 70 | -2.52 | 5.13 |
| COc1ccccc1-c1nnn(-c2cccc(C)n2)c1-c1ccc2nccnc2c1 | 34.9 | 18.4 | 4.46 |
| Cc1cccc(-n2nnc(-c3cc(F)cc(F)c3)c2-c2ccc3nccnc3c2)n1 | 17.4 | 40.4 | – |
| COc1ccc(-c2nnn(-c3cccc(C)n3)c2-c2ccc3nccnc3c2)cc1 | 0.26 | – | – |
| Cc1cccc(-n2nnc(-c3ccc(F)cc3)c2-c2ccc3nccnc3c2)n1 | 8.19 | 30.9 | – |
